Measurements: US5360613A, “Method of reducing blood levels of total cholesterol and low-density lipoprotein cholesterol” (Iowa State University Research Foundation, Inc., priority 1993, dated 1994)

How the values were obtained:
blood cholesterol = assay: Human dose-response study, blood cholesterol, triglycerides and glucose (Example V, Table E); format: in vivo, humans; conditions: for % Change After 8 Days, Cholesterol: linear effect p .21; for % Change After 8 Days, LDL: linear effect p .26; for % Change After 8 Days, Triglycerides: linear effect p .50; for % Change After 8 Days, HDL: linear effect p .85; for % Change After 8 Days, Glucose: linear effect p .99
Experimental: (§1) Higher dose levels than in Example IV of Ca-HMB were tested in humans. The objective was to obtain an indication of whether higher doses could be safely administered, and also whether higher doses might provide a greater reduction in total cholesterol and LDL cholesterol.
(§2) Normal humans were used in the study. Ca-HMB was administered in 250 mg capsules, and the subjects were instructed to take the capsules in 4 equal doses daily. No control of diet was attempted except they were instructed to eat as they normally would. On alternate days the subjects had blood drawn before the morning meal and before they took the morning HMB dose. Four subjects were studied for dose level of 05., 1, 2 and 4 grams per day.
(§3) Results from all samples of each subject were subjected to linear regression and the slope and intercept used to calculate the % change in concentration after 8 days on treatment. The percentage changes were then subjected to ANOVA-regression to determine if there was a linear effect of dosage on the parameter. The dose-response effect (p<) is listed in the linear effect column of Table E.

[1] = Human dose-response study, body weight and body fat (Example V, Table E); format: in vivo, humans; conditions: for % Change After 8 Days, Body fat (%): linear effect NS; for % Change After 8 Days, Weight: linear effect p .32
Experimental: as §1, §2, §3

[2] = Hygroscopicity of HMB salts; format: physicochemical; conditions: compared with sodium or potassium salts
aorta = assay: Pig feeding study, aorta streaking (pre-atherosclerotic lesions) (Example III, Table C); format: in vivo, pigs; conditions: dietary .05%; 0 least severe to 3.2 most severe; control 1.87; HMB p .06, KIC ns
Experimental: (§4) A further large mammal study was carried out with pigs. Pigs comprise test animals which are more similar in certain respects to humans than ruminants.
(§5) Control: 60 g. of calcium
(§6) The pigs were housed in pens of two animals each and were allowed ad libitum access to food and water. Pigs were approximately 160 lbs. at the start of the experiment and were 240 lbs. at the end. All pigs were castrate males. At day 28 and day 43 of the experiment blood was collected from the anterior vena cava by venipuncture. Blood was collected into EDTA containing tubes, centrifuged and frozen until analyzed. At approximately 100 days of the experiment half of the animals (32) were slaughtered, and at 120 days the remaining 32 animals were slaughtered. At the time of slaughter the abdominal aorta was dissected out and external fat removed. The aorta was then split lengthwise and 1/2 fixed in formaldehyde for 48 hours. At this time aortas were removed, stretched over a 6 inch stick, washed in ethanol and stained with a lipid stain for 2 hours. After a 1 hour wash aortas were blotted and examined. All the aortas from a group were laid out on a white bench and arranged in order from least sever to most sever. The least sever had no dark red streaks on the aorta or around the small vertebral vessels leaving the aorta. The most sever lesions had multiple streaks in the middle of the aorta and dark red deposits in turbulent areas such as the branching of vessels from the aorta. The ordered aortas were then assigned a consecutive decimal number. The first (least severe) was assigned 0 and the most severe was assigned 3.2 Plasma cholesterol and triglycerides were measured by an enzyme-colorimetric assay (Sigma).
(§7) statistical analysis was accomplished by the general linear model procedure of the Statistical Analysis System (SAS). The model included the main effects of treatment and pen number. T-tests were conducted from the ANOVA standard error, to compare the HMB treatments to the control. […] It appeared that HMB can partially prevent the formation of pre-atherosclerotic lesions. No effect of KIC was noted relative to any parameter.

[3] = test system: plasma cholesterol and triglycerides; assay: Pig feeding study, plasma cholesterol and triglycerides (Example III, Table C); format: in vivo, pigs
Experimental: as §4, §5, §6, §7

## CC(C)(O)CC(=O)O [Ca-HMB]
Blood cholesterol; 0.5 g daily
  % Change After 8 Days, Cholesterol: 6%
  % Change After 8 Days, LDL: 2%
  % Change After 8 Days, Triglycerides: 26%
  % Change After 8 Days, HDL: 0%
  % Change After 8 Days, Glucose: -7%
Blood cholesterol; 1.0 g daily
  % Change After 8 Days, Cholesterol: 1%
  % Change After 8 Days, LDL: 0%
  % Change After 8 Days, Triglycerides: -16%
  % Change After 8 Days, HDL: 6%
  % Change After 8 Days, Glucose: 2%
Blood cholesterol; 2 g daily
  % Change After 8 Days, Cholesterol: -2%
  % Change After 8 Days, LDL: -3%
  % Change After 8 Days, Triglycerides: -8%
  % Change After 8 Days, HDL: 1%
  % Change After 8 Days, Glucose: -5%
Blood cholesterol; 4 g daily
  % Change After 8 Days, Cholesterol: -4%
  % Change After 8 Days, LDL: -6%
  % Change After 8 Days, Triglycerides: 36%
  % Change After 8 Days, HDL: 0%
  % Change After 8 Days, Glucose: -4%
[1]; 0.5 g daily
  % Change After 8 Days, Body fat (%): 5%
  % Change After 8 Days, Weight: 1.7%
[1]; 1.0 g daily
  % Change After 8 Days, Body fat (%): -18%
  % Change After 8 Days, Weight: -.3%
[1]; 2 g daily
  % Change After 8 Days, Body fat (%): -15%
  % Change After 8 Days, Weight: .5%
[1]; 4 g daily
  % Change After 8 Days, Body fat (%): -1%
  % Change After 8 Days, Weight: .2%
[2]
  hygroscopicity: less hydroscopic than the sodium or potassium salts

## CC(C)CC(=O)C(=O)O [KIC, ketoisocaproic acid, reference compound]
aorta
  Aorta Streaking: 1.48
[3]; 0.05% KIC in diet, aorta streaking, plasma cholesterol, triglycerides
  effect relative to any parameter: No effect
[3]; dietary .05%, control 107, ns
  Plasma Triglycerides: 106 mg %
[3]; dietary .05%, control 135, HMB p .05, KIC ns
  Plasma Cholesterol: 139 mg %
